Source: patent US20220175860A1, “DUNALIELLA ALGA PREPARATION FOR PREVENTION AND/OR TREATMENT OF A NEURODEGENERATIVE DISEASE, A DISORDER ASSOCIATED WITH PROTEIN MISFOLDING AND COGNITIVE DECLINE” (TEL HASHOMER MEDICAL RESEARCH INFRASTRUCTURE AND SERVICES …, priority 2019, published 2022)
Like-named read-outs stand apart in the source and are kept apart here.

Assays:
[1] = Tissue carotenoids by HPLC in Tg2576 mice; assay type: in vivo; details: Tg2576 study, mice fed Dunaliella diet vs control diet
Source text: In order to assess whether carotenoid level was higher in brain tissue of Tg2576 mice fed with the Dunaliella diet as compared to the control group, mice brain carotenoids were extracted and then measured using HPLC.

[2] = Tissue carotenoids by HPLC in 5×FAD mice; details: for Amount in brain tissues: 5×FAD mice fed Dunaliella algae diet vs regular diet, HPLC; for Accumulation in liver, fat and brain tissues: 5×FAD study, Dunaliella diet group vs control group
[3] = tested on: blood brain barrier (BBB) in-vitro model (endothelial cells / glial cells); assay: In vitro blood brain barrier (BBB) cell culture model, HPLC of carotenoids; assay type: in vitro ADME, porcine brain endothelial cells, new born rat glial cells
Procedure: FIG. 5A-FIG. 5C: Schematic drawings of the in vitro blood brain barrier (BBB) cell culture system. The model consists of a monolayer of endothelial cells, forming tight junctions that are grown on a microporous membrane filter culture insert (luminal side) and glial cells seeded at the abluminal side of the filter. Low Density Lipoprotein (LDL, 100 μl 1,600 μg/ml) from a healthy volunteer is added to the luminal side. Cells are incubated for 24 hours and then samples are collected from the luminal and abluminal side and analyzed.
An in vitro model of the blood brain barrier (BBB) was used. The model consists of a monolayer of endothelial cells, obtained from primary cultures of endothelial cells established from freshly collected porcine brain forming tight junctions that are grown on a microporous membrane filter culture insert (the “Luminal side” in FIG. 6) and of a monolayer of glial cells extracted from new born rats' cortex that are seeded at the abluminal side of the filter (the “Abluminal side” in FIG. 6). Low density lipoprotein (LDL, 100 μl, 1,600 μg/ml from a healthy volunteer) was added to the luminal side. Cells were then incubated for 24 hours and thereafter samples were collected and analyzed using HPLC. The model was prepared by first seeding the glial cells on the abluminal side of a filter, a week later, the above-described endothelial cells were seeded on the luminal side of the filter and two days later LDL was added to the luminal side of the filter as indicated above.
LDL was obtained from healthy volunteers by sequential ultracentrifugation (density, 1.063 g/ml), and the concentration was determined by the Lowry method.
Using the “BBB in-vitro model” described above and schematically shown in FIG. 5A, 5B, 5C, glial and endothelial cells were incubated for 24 hours in the presence of LDL (inherently containing all-trans and 9-cis β-carotene) and then samples were collected and carotenoids were extracted and analyzed using HPLC.

[4] = carotenoids in human LDL added to luminal side, 24 hours incubation, HPLC

| Compound | Tissue levels (liver, fat, brain) [1] | Amount in brain tissues [2] | Accumulation in liver, fat and brain tissues [2] | Crossing of the BBB (luminal to abluminal side) [3, 4] | Crossing of the BBB (luminal to abluminal side) [3] |
| --- | --- | --- | --- | --- | --- |
| CC1=C(/C=C/C(C)=C/C=C/C(C)=C/C=C/C=C(C)/C=C/C=C(C)/C=C/C2=C(C)CCCC2(C)C)C(C)(C)CCC1 [all-trans β Carotene, all-trans β-carotene] | much higher levels | significantly higher amounts | much higher levels | crossed the BBB | – |
| CC1=C(/C=C/C(C)=C\C=C\C(C)=C\C=C\C=C(C)\C=C\C=C(C)\C=C\C2=C(C)CCCC2(C)C)C(C)(C)CCC1 [9-cis β Carotene, 9-cis β-carotene] | much higher levels | significantly higher amounts | much higher levels | crossed the BBB | – |
| CC(C)=CCC/C(C)=C/C=C/C(C)=C/C=C/C(C)=C/C=C/C=C(C)/C=C/C=C(C)/C=C/C=C(\C)CCC=C(C)C [lycopene, reference compound] | – | – | – | – | did not cross the BBB |
